Reference: ChEMBL document CHEMBL3886227, “Multiheteroaryl compounds as inhibitors of H-PGDS and their use for treating prostaglandin D2 mediated diseases” (2015)
pIC50: −log10 of the molar value.

Molecular target: Hematopoietic prostaglandin D synthase (Homo sapiens, UniProt O60760)
Experiment: Fluorescence Polarization Binding Assay (FPBA): This assay essentially is available from Cayman Chemical Company as Catalog item #600007. The test data reported for the aforementioned Examples (H-PGDS FPBA IC50) were generated using a 96-well, instead of the 384-well, format.Detection analyte and H-PGDS-MBP fusion enzyme were incubated in the presence of reduced glutathione (5 mM) for 60-90 minutes at room temperature and FP was measured using a TECAN SAFIRE 2 plate reader equipped with absorbance, fluorescence, fluorescence polarization and FRET capabilities. Assays were performed in 96-well microtiter plates in 100 µL of total sample volume. Excitation and emission wavelengths appropriate for the employed detection analyte were used.

Chain of Hematopoietic prostaglandin D synthase (O60760 whole entry, the tested form may be a part): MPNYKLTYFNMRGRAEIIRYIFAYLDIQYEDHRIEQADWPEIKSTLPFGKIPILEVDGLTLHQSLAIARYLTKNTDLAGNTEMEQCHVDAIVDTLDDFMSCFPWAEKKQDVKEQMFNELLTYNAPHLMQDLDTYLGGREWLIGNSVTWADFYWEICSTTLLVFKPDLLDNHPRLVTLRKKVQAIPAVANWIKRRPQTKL

- pIC50: 5.70
SMILES: COC(=O)c1cc(-c2cnc(Oc3ccccc3)nc2)[nH]n1
